Active and inactive are the calls of the source. No cut-off for these calls is given here.
Legend:
Escherichia coli J96 = assay: Selectivity ratio of Kd for Escherichia coli J96 FimH lectin domain Y48A mutant to Kd for Escherichia coli J96 wild type FimH lectin domain
[1] = target: Type 1 fimbrin D-mannose specific adhesin (Escherichia coli K-12) (UniProt P08191); assay: Binding affinity to Escherichia coli J96 FimH lectin domain expressed in Escherichia coli C43 (DE3) by SAXS analysis
[2] = Binding affinity to Escherichia coli FimH lectin domain
[3] = target: Type 1 fimbrin D-mannose specific adhesin (Escherichia coli K-12) (UniProt P08191); assay: Binding affinity to Escherichia coli J96 FimH lectin domain expressed in Escherichia coli C43 (DE3) by NMR analysis
[4] = Binding affinity to Escherichia coli J96 FimH lectin domain Y48A mutant expressed in Escherichia coli C43 (DE3) by direct ITC analysis
[5] = target: Type 1 fimbrin D-mannose specific adhesin (Escherichia coli K-12, UniProt P08191); assay: Binding affinity to Escherichia coli J96 wild type FimH lectin domain expressed in Escherichia coli C43 (DE3) by direct ITC analysis
Type 1 fimbrin D-mannose specific adhesin, sequence (P08191 whole entry, the tested form may be a part): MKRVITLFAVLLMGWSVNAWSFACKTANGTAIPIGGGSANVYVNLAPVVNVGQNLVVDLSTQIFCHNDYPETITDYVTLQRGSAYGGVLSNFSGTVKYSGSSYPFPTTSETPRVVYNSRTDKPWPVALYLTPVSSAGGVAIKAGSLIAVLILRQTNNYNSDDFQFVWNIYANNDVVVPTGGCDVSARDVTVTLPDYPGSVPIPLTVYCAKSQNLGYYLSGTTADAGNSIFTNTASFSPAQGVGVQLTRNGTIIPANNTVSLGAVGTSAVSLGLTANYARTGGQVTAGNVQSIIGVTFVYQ

Type 1 fimbrin D-mannose specific adhesin (Escherichia coli K-12), sequence (P08191 whole entry, the tested form may be a part): as above

**Q.** What does the source list for CCCCCCCO[C@H]1O[C@H](CO)[C@@H](O)[C@H](O)[C@@H]1O?
**A.** Selectivity ratio (Escherichia coli J96): 5; Activity [1]: Active; Kd [2]: 7 nM; Activity [3]: Active; Kd [4]: 94.3 nM; Kd [5]: 17.1 nM

From ChEMBL document CHEMBL3124783, “Study of the structural and dynamic effects in the FimH adhesin upon α-d-heptyl mannose binding” (J Med Chem, 2014)
